According to patent US20260217701A1, “SELECTIVE BET INHIBITORS AND USES THEREOF” (Tay Therapeutics Limited, priority 2022, published 2026):
“And” between values parts separate entries of the source, which are not always exact repeats. Identical values can stand only once. Like-named read-outs stand apart in the source and are kept apart here.

What was measured:
CXCL10 = CXCL10 release from IFN-γ stimulated human PBMCs (ELISA); format: cell-based; details: for IC50: Homo sapiens, PBMC
Procedure: To analyze the selectivity of Compound A for CXCL10, human PBMCs were similarly thawed, and compounds were similarly prepared (final compound concentration ranged from 30,000 nM to 0.005 nM, with a final DMSO concentration per well of 0.3%). PBMCs were seeded into 96-well plates at a concentration of 2×10^5 cells/well (volume of 190 μL) and treated with various concentrations of Compound A for 1 hour. The PBMCs were then stimulated with IFN-γ (15 ng/ml final concentration in a volume of 10 μL), and supernatants were collected 24 hours after the exposure to IFN-γ. Levels of CXCL10 in the supernatant were then analyzed by ELISA (Invitrogen).

[1] = Pharmacokinetics of Compound A in the CIA study (groups 8 and 9); format: in vivo; details: Lewis rats
Procedure: (§1) Blood samples were collected from animals in group 8 on Day 0, and blood samples were collected from group 9 on Day 20. Blood samples from group 8 and group 9 were collected at 0.25, 0.5, 1, 2, 4, 8, 10, 12, 13, and 24-hours following morning administration of their first dose of the compound. The second dose of the compound was administered after the 8-hour collection timepoint. All blood samples were collected at the eye socket and put into tubes containing EDTA-K2 as an anticoagulant and centrifuged at 4° C. at 4,000 g for 5 minutes. Plasma was transferred to a separate tube and stored at −75+15° C. for PK analysis. Pharmacokinetic analyses for Compound A in Lewis rats were performed as described in Experimental Method B.
as §1, with “−75±15°” for “−75+15°”, “Pharmacokinetic analyses for Compound A in Lewis rats were performed as described in Experimental Method B.” left out

[2] = CIA study: pharmacokinetics / plasma concentration after oral administration; format: in vivo, Lewis rats; details: for concentration at 21 day: oral
[3] = CIA-induced animals, day 0, 3 mg/kg, average
[4] = CIA-induced animals, day 0, 3 mg/kg, individual test subjects
[5] = CIA-induced animals, day 21, 3 mg/kg, average
[6] = CIA-induced animals, day 21, 3 mg/kg, individual test subjects

In the case of `Cn1cc(-c2ccccc2)c(-c2cn(C)c(=O)c3[nH]c(-c4cnn(C(F)(F)F)c4)cc23)cc1=O` [Compound A, 6-methyl-4-(1-methyl-2-oxo-5-phenyl-1,2-dihydropyridin-4-yl)-2-(1-(trifluoromethyl)-1H-pyrazol-4-yl)-1,6-dihydro-7H-pyrrolo[2,3-c]pyridin-7-one], the “Percent Inhibition Relative to Control (CXCL10)” value (CXCL10; Compound Conc. 10 μM, Donors 1-6 two values each, Donors 7-10 three values each) is reported as 101.41%, the IC50 (CXCL10; Average preliminary biomarker assay, read-out: CXCL10 IC50 Mean) is reported as 1000 nM and the IC50 (CXCL10; Preliminary biomarker assay, Test Subject 1, read-out: CXCL 10 IC50) is reported as 1000 nM. For the same compound, the IC50 (CXCL10; ELISA, read-out: Selectivity (IC50) CXCL10) was 3640 nM, the “inhibition of CXCL10” value (CXCL10; human PBMCs, IFN-γ, 24 hours) was “minimal inhibition” and the “period of increasing plasma concentration after oral administration” value [1] was “approximately the first four hours”. The “AUClast/D (Mean)” value [2, 3] was 509 mg·h/mL, the “AUC—%Extrap—obs (Mean)” value [2, 3] was 14.0% and the AUCInf [2, 4] was 1393 ng·h/mL and 1454 ng·h/mL. The AUClast [2, 4] was 1250 ng·h/mL and 1264 ng·h/mL, the “AUC—%Extrap—obs” value [2, 4] was 18.6% and 10.3% and 13.1% and the Cmax [2, 4] was 77.9 ng/mL and 82.6 ng/mL. The “MRTInf—obs” value [2, 4] was 10.7 h and 11.8 h, the T1/2 [2, 4] was 7.03 h and 7.60 h and the “AUClast/D (Mean)” value [2, 5] was 246 mg·h/mL. The “AUC—%Extrap—obs (Mean)” value [2, 5] was 17.3%, the “MRTlnf—obs (Mean)” value [2, 5] was 13.5 h and the AUCInf [2, 6] was 1059 ng·h/mL and 985 ng·h/mL. The AUClast [2, 6] was 826 ng·h/mL and 784 ng·h/mL, the “AUC—%Extrap—obs” value [2, 6] was 9.67% and 22.0% and 20.4% and the Cmax [2, 6] was 51.2 ng/mL and 45.7 ng/mL. The “MRTInf—obs” value [2, 6] was 15.5 h and 14.9 h, the T1/2 [2, 6] was 10.3 h and 9.68 h and the “Plasma Concentration” value ([2]; Day 21, CIA rats, 1 mg/kg) was 12.8 ng/mL and 14.5 ng/mL and 13.9 ng/mL and 14.3 ng/mL and 21.1 ng/mL and 20.6 ng/mL. For the same compound, the “Plasma Concentration” value ([2]; Day 21, CIA rats, 10 mg/kg) was 181 ng/mL and 240 ng/mL and 230 ng/mL and 264 ng/mL and 174 ng/mL and 255 ng/mL and 248 ng/mL, the concentration at 21 day ([2]; Lewis, rat, plasma, 1 mg/kg, Day 21, CIA rats, 1 mg/kg, read-out: Plasma Concentration) was 13 ng/mL and the concentration at 21 day ([2]; Lewis, rat, plasma, 1 mg/kg, Group 5 (CIA + Compound A 1 mg/kg), read-out: Day 21 Mean Plasma Concentration) was 15.5 ng/mL. For the same compound, the concentration at 21 day ([2]; Lewis, rat, plasma, 3 mg/kg, Group 6 (CIA + Compound A 3 mg/kg), read-out: Day 21 Mean Plasma Concentration) was 49.5 ng/mL, the concentration at 21 day ([2]; Lewis, rat, plasma, 10 mg/kg, Day 21, CIA rats, 10 mg/kg, read-out: Plasma Concentration) was 232 ng/mL and the concentration at 21 day ([2]; Lewis, rat, plasma, 10 mg/kg, Group 7 (CIA + Compound A 10 mg/kg), read-out: Day 21 Mean Plasma Concentration) was 221 ng/mL. It also gave an AUC(0-inf) ([2]; Lewis, rat, plasma, po, 3 mg/kg, CIA-induced animals, day 0, 3 mg/kg, average, read-out: AUCInf (Mean)) of 1800 ng·h/mL, an AUC(0-t) ([2]; Lewis, rat, plasma, po, 3 mg/kg, CIA-induced animals, day 0, 3 mg/kg, average, read-out: AUClast (Mean)) of 1530 ng·h/mL and a Cmax ([2]; Lewis, rat, plasma, po, 3 mg/kg, CIA-induced animals, day 0, 3 mg/kg, average, read-out: Cmax (Mean)) of 95 ng/mL. It also gave an MRT inf ([2]; Lewis, rat, plasma, po, 3 mg/kg, CIA-induced animals, day 0, 3 mg/kg, average, read-out: MRTInf—obs (Mean)) of 12.2 h, a half-life ([2]; Lewis, rat, plasma, po, 3 mg/kg, CIA-induced animals, day 0, 3 mg/kg, average, read-out: T1/2 (Mean) (converted)) of 7.94 h and a Tmax ([2]; Lewis, rat, plasma, po, 3 mg/kg, CIA-induced animals, day 0, 3 mg/kg, average, read-out: Tmax (Mean)) of 5.33 h. For the same compound, the AUC(0-inf) ([2]; Lewis, rat, plasma, po, 3 mg/kg, CIA-induced animals, day 0, 3 mg/kg, individual test subjects, read-out: AUCInf) was 2540 ng·h/mL, the AUC(0-t) ([2]; Lewis, rat, plasma, po, 3 mg/kg, CIA-induced animals, day 0, 3 mg/kg, individual test subjects, read-out: AUClast) was 2070 ng·h/mL and the Cmax ([2]; Lewis, rat, plasma, po, 3 mg/kg, CIA-induced animals, day 0, 3 mg/kg, individual test subjects, read-out: Cmax) was 123 ng/mL. It also gave an MRT inf ([2]; Lewis, rat, plasma, po, 3 mg/kg, CIA-induced animals, day 0, 3 mg/kg, individual test subjects, read-out: MRTInf—obs) of 14.1 h, a half-life ([2]; Lewis, rat, plasma, po, 3 mg/kg, CIA-induced animals, day 0, 3 mg/kg, individual test subjects, read-out: T1/2 (converted)) of 9.19 h and a Tmax ([2]; Lewis, rat, plasma, po, 3 mg/kg, CIA-induced animals, day 0, 3 mg/kg, individual test subjects, read-out: Tmax) of 6 h. The AUC(0-t) ([2]; Lewis, rat, plasma, po, 3 mg/kg, CIA-induced animals, day 21, 3 mg/kg, average, read-out: AUClast (Mean)) was 738 ng·h/mL, the Cmax ([2]; Lewis, rat, plasma, po, 3 mg/kg, CIA-induced animals, day 21, 3 mg/kg, average, read-out: Cmax (Mean)) was 48.4 ng/mL and the half-life ([2]; Lewis, rat, plasma, po, 3 mg/kg, CIA-induced animals, day 21, 3 mg/kg, average, read-out: T1/2 (Mean) (converted)) was 8.9 h. The Tmax ([2]; Lewis, rat, plasma, po, 3 mg/kg, CIA-induced animals, day 21, 3 mg/kg, average, read-out: Tmax (Mean)) was 5.33 h, the AUC(0-inf) ([2]; Lewis, rat, plasma, po, 3 mg/kg, CIA-induced animals, day 21, 3 mg/kg, individual test subjects, read-out: AUCInf) was 668 ng·h/mL and the AUC(0-t) ([2]; Lewis, rat, plasma, po, 3 mg/kg, CIA-induced animals, day 21, 3 mg/kg, individual test subjects, read-out: AUClast) was 604 ng·h/mL.
